In ChEMBL document CHEMBL1201862, “PubChem BioAssay data set” (2004):
The source made the active and inactive calls.

Tests used:
[1] = non-specific cell cytotoxicity, dose response, cytotoxicity control for PAX8 inhibitor project, plate reader, dry powder samples (AID 743021); type: functional, cell-based
[2] = test system: HEK293; assay: optical interference in Abeta FP readout, dose response, artefact control for IDE activator project, biochemical, fluorescence polarization (AID 588442); type: functional, cell-based; details: Homo sapiens
[3] = target: T1, Exodeoxyribonuclease V (Escherichia coli (strain K12), UniProt P04993+P07648+P08394); assay: E. coli RecBCD inhibitors, dose response, counter-screen for AddAB inhibitor project, absorbance, V66 E. coli, mutant T4 phage (AID 492957); type: functional, cell-based, Escherichia coli str. K-12 substr. MG1655
T1 sequence (P04993 whole entry): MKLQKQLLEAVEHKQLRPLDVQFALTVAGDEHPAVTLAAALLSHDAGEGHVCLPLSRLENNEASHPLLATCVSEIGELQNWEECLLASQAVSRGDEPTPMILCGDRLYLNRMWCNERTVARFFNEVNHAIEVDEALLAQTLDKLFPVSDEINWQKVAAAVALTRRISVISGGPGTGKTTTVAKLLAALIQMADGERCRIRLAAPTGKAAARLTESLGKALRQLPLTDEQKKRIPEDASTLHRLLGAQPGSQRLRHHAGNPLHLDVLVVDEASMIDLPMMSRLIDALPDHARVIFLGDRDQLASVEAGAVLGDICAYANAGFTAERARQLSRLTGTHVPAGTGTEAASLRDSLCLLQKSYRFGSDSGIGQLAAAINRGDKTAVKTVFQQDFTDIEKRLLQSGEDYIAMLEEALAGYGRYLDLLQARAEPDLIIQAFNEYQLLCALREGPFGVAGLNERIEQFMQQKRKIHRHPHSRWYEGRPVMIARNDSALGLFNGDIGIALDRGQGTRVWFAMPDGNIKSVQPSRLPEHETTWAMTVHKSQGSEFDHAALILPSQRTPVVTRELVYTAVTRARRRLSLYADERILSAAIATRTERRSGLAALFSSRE
T1 sequence (P07648 whole entry): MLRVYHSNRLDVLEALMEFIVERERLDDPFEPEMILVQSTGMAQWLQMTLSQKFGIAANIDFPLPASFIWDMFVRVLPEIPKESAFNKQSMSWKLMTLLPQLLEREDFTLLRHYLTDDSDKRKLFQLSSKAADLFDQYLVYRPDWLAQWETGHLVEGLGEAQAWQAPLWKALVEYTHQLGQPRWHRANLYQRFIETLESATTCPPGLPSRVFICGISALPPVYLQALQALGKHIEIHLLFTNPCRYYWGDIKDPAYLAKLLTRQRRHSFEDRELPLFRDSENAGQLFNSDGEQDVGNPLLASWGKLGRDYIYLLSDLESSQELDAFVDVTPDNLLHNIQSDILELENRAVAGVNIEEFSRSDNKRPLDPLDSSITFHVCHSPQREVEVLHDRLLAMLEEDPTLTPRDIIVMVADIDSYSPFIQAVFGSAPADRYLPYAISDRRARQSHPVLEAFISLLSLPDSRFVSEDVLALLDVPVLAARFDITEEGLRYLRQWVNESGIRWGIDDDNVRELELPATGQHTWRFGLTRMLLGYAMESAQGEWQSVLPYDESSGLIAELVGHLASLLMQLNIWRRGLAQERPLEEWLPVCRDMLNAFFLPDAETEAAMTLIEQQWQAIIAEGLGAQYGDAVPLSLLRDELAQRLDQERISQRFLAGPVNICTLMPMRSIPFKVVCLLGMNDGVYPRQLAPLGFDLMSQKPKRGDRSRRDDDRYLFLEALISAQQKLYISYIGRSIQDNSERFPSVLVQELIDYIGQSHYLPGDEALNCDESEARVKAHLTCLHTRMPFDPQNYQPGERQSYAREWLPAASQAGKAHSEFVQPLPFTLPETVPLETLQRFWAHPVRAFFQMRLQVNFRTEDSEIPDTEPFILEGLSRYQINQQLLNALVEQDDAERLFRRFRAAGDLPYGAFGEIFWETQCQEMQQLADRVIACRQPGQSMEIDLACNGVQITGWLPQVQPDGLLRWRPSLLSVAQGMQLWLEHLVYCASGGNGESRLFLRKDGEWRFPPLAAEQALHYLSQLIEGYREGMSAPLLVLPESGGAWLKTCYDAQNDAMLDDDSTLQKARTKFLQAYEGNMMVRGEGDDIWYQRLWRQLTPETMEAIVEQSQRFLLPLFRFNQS
T1 sequence (P08394 whole entry): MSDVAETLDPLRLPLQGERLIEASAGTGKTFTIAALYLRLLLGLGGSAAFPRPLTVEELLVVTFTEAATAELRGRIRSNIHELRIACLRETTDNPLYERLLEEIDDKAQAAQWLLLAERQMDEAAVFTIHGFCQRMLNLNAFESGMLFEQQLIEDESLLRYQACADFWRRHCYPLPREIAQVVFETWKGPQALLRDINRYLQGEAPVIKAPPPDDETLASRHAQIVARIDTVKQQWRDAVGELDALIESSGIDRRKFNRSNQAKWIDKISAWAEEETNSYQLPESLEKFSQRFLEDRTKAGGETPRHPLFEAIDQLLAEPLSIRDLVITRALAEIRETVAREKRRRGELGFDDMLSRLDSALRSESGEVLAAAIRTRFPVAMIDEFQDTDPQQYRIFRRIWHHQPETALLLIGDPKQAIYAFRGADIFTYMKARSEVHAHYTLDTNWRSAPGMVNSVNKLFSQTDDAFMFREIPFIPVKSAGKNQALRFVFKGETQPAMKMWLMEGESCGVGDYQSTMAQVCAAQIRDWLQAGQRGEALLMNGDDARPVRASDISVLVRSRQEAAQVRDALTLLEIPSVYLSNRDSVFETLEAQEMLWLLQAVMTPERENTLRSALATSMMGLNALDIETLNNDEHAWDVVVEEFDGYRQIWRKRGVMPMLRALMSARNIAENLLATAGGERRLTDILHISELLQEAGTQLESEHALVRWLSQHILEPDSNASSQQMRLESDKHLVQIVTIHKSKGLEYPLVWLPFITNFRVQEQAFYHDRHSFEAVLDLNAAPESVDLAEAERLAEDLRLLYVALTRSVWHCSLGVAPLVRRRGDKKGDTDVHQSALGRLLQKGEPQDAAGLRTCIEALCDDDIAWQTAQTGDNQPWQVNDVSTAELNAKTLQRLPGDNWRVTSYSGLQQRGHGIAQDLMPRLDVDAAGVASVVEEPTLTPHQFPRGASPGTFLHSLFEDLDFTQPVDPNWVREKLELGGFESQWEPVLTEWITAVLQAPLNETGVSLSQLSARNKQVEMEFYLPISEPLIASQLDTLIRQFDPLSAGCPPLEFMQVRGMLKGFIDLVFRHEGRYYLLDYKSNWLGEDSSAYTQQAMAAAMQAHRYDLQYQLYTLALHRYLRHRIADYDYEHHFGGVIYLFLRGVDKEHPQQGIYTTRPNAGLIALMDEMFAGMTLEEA

[4] = test system: Jurkat; assay: SAR Analysis of small molecule inhibitors of T-cell specific antigen receptor-induced NF-kB activation in a Jurkat cell line using a luminescence assay - Set 2. [Related pubchem assays (depositor defined):AID435003, AID435012, AID465]; type: functional, cell-based; details: Homo sapiens

CCOC(=O)c1c(C)[nH]c2c1-c1ccccc1C(=O)C2=O
AC50 [1]: 4.93 µM (active)

CCOC(=O)C1=C(c2ccccc2)N=C(N)NC1c1ccc(OCc2ccc(Cl)cc2)c(OC)c1 (centres undefined)
EC50 [2]: > 55.9 µM (inactive)

CC(=O)NC(c1ccc2ccccc2c1)c1ccc2cccnc2c1O (centres undefined)
IC50 [3]: > 118 µM (inactive)
IC50 [4]: 1.89 µM (active)
